“Also recorded” adds a separate entry of the source.
Columns and labels:
Swiss Webster mice = test: Single dose range-finding toxicity study in mice; type: in vivo, mouse (Swiss Webster); set-up: key to Clinical observation: Normal / Clinical observation: Vocalization / Clinical observation: Slow breathing / Clinical observation: Hypoactive / Clinical observation: FPSR / Clinical observation: Cool to touch / Clinical observation: Hypoactivity: Observations are recorded as present (x); not observed (--)
Procedure: (§1) Single dose range-finding study of HE-33 in mice
(§2) Swiss Webster mice (Charles River Laboratories, Hollister, Calif.) were used for the preliminary toxicology study. One mouse per dose level was administered a single intravenous (IV) dose of either 1.5, 15, 75, 100, 150, 200, 300 or 400 mg of HE-33/kg body weight. The dose volume for all mice receiving saline or formulations of HE-3 3 was 10 mL/kg body weight. All doses were administered as a slow-push IV injection in the tail vein. Day 1 of the study for each mouse occurred on the day of administration of the drug or the saline.
(§3) Clinical observations/body weights
(§4) Each mouse was observed closely for clinical signs of toxicity at approximately 10, 30 and 60 minutes and 5 hours after dosing on Day 1, and once daily on Days 2-8. In addition, mortality checks were performed twice daily. Body weights were obtained on each mouse prior to dosing on Day 1. Body weights (Day 1) for the mice used in this study ranged between 27.3 and 32.5 g (Table 8).
(§5) ^a Animals were dosed with saline adjusted to pH 8.55.
(§6) ^b Observations are recorded as present (x) or not observed (--).
(§7) ^c Additional observation was reported in the time interval closest t
(§8) ^d FPSR = Flattened posture with or without closed eyes; animal would
(§9) periodically have a startled response in response to or without a noise

[1] = Single dose range-finding toxicity study in mice; type: in vivo, mouse (Swiss Webster); set-up: key to Clinical observation: Normal / Clinical observation: Vocalization / Clinical observation: Slow breathing / Clinical observation: Hypoactive / Clinical observation: FPSR / Clinical observation: Cool to touch / Clinical observation: Hypoactivity: Observations are recorded as present (x); not observed (--); conditions: mouse, in vivo, single IV administration, mice
Procedure: as §1, §2, §3, §4, §5, §6, §7, §8, §9

[2] = system: GVHD in (B6 x C3H)F1 mice; test: GVHD in (B6 x C3H)F1 recipients of cells from pretreated C57BL/6 donor mice; type: in vivo, mouse
Procedure: Generation of F1 Recipient Mice: Male mice of inbred strains, C57BL/6 (H-2^b haplotype) were mated with female mice of inbred strains, C3 H/j (H-2^k haplotype). The resulting hybrids (C57BL/6×C3 H/j)F1 were used as recipients of the B6 spleen cells.
Elimination of endogenous and inducible NK cell activity from the cell donor mice (C57BL/6)
Six- to ten-week old C57BL/6 mice were treated for 24 hours orally or intravenously with HE-33. Orally-treated mice received 400 mg/kg twice a day (Bid), and intravenously treated mice received a single 100 mg/kg i.v.
Irradiation of Recipient (B6 ×C3 H)F1 Mice: Ten- to twelve- week old (B6 ×C3 H)F1 mice were sublethally irradiated with a Cobalt-60 gamma source at 450 rads in a single dose.
Induction of GVHD: GVHD was induced in irradiated (B6 ×C3 H)F1 mice by the intravenous injection of 5×10^7 donor B6 (H-2^b) spleen and lymph node cells.

[3] = system: tetanus toxoid-specific T-cell proliferation (PBMC); test: cells; type: cell-based, human
IL-2 = IL-2 production in PHA-stimulated PBMC cultures; type: cell-based, human; set-up: % Inhibition of IL-2 production: concentration or dose not given beside the values
Procedure: (§10) Production of autocrine growth factors (IL-2, IL-4, IL-10 and Interferon-gamma) in PHA-stimulated human PBMC cultures
(§11) Culture supernatants were collected at the times indicated and frozen at -20° C. At the end of 96 hr., all supernatants were assayed by enzyme immunoassay for the presence of the cytokines: interleukin-2, -4, -10 and interferon (IFN)-gamma. Results were expressed in pg/mL concentration of cytokine and % inhibition of cytokine production.

IL-4 = IL-4 production in PHA-stimulated PBMC cultures; type: cell-based, human; set-up: % Inhibition of IL-4 production: concentration or dose not given beside the values
Procedure: as §10, §11

IL-10 = IL-10 production in PHA-stimulated PBMC cultures; type: cell-based, human; set-up: % Inhibition of IL-10 production: concentration or dose not given beside the values
Procedure: as §10, §11

[4] = animal 3, 75 mg/kg IV, 30 min to day 8
[5] = animal 4, 150 mg/kg IV, 10, 30, 60 min
[6] = animal 4, 150 mg/kg IV, 5 hr to day 8
[7] = animal 5, 300 mg/kg IV, 10 min to 5 hr
[8] = animal 5, 300 mg/kg IV, days 2-8
[9] = animal 11, 300 mg/kg IV, 30, 60 min
[10] = animal 11, 300 mg/kg IV, 10 min and 5 hr to day 8

CCCN(CCC)c1ncnc2c1ncn2[C@@H]1O[C@@H]2COP(=O)(O)O[C@H]2[C@H]1O [HE-33, N^6,N^6 -di-n-Propyl-c-AMP]
Clinical signs of toxicity (Swiss Webster mice; 150-400 mg/kg IV, between 10 minutes and 5 hrs after dosing on Day 1): signs of hypoactivity, flattened posture with or without closed eyes and slow breathing
Clinical observation: Normal (Swiss Webster mice; animal 1, 1.5 mg/kg IV, all times 10 min to day 8): x
Clinical observation: Normal (Swiss Webster mice; animal 2, 15 mg/kg IV, all times 10 min to day 8): x
Clinical observation: Normal (Swiss Webster mice; animal 3, 75 mg/kg IV, 10 min): --
Clinical observation: Vocalization (Swiss Webster mice; animal 3, 75 mg/kg IV, 10 min): x
Clinical observation: Normal (Swiss Webster mice; [4]): x
Clinical observation: Vocalization (Swiss Webster mice; [4]): --
Clinical observation: FPSR (Swiss Webster mice; [5]): x
Clinical observation: Hypoactive (Swiss Webster mice; [5]): x
Clinical observation: Normal (Swiss Webster mice; [5]): --
Clinical observation: Slow breathing (Swiss Webster mice; [5]): x
Clinical observation: FPSR (Swiss Webster mice; [6]): --
Clinical observation: Hypoactive (Swiss Webster mice; [6]): --
Clinical observation: Normal (Swiss Webster mice; [6]): x
Clinical observation: Slow breathing (Swiss Webster mice; [6]): --
Clinical observation: FPSR (Swiss Webster mice; animal 5, 300 mg/kg IV, 10, 30, 60 min): x
Clinical observation: Cool to touch (Swiss Webster mice; animal 5, 300 mg/kg IV, 10, 30, 60 min and days 2-8): --
Clinical observation: Hypoactivity (Swiss Webster mice; [7]): x
Clinical observation: Normal (Swiss Webster mice; [7]): --
Clinical observation: Slow breathing (Swiss Webster mice; [7]): x
Clinical observation: Cool to touch (Swiss Webster mice; animal 5, 300 mg/kg IV, 5 hr): x
Clinical observation: FPSR (Swiss Webster mice; animal 5, 300 mg/kg IV, 5 hr to day 8): --
Clinical observation: Hypoactivity (Swiss Webster mice; [8]): --
Clinical observation: Normal (Swiss Webster mice; [8]): x
Clinical observation: Slow breathing (Swiss Webster mice; [8]): --
Clinical observation: Normal (Swiss Webster mice; animal 8, 100 mg/kg IV, all times 10 min to day 8): x
Clinical observation: Normal (Swiss Webster mice; animal 9, 200 mg/kg IV, all times 10 min to day 8): x
Clinical observation: Normal (Swiss Webster mice; animal 10, 200 mg/kg IV, all times 10 min to day 8): x
Clinical observation: FPSR (Swiss Webster mice; [9]): x
Clinical observation: Hypoactivity (Swiss Webster mice; [9]): x
Clinical observation: Normal (Swiss Webster mice; [9]): --
Clinical observation: Slow breathing (Swiss Webster mice; [9]): x
Clinical observation: FPSR (Swiss Webster mice; [10]): --
Clinical observation: Hypoactivity (Swiss Webster mice; [10]): --
Clinical observation: Normal (Swiss Webster mice; [10]): x
Clinical observation: Slow breathing (Swiss Webster mice; [10]): --
Clinical observation: Slow breathing (Swiss Webster mice; animal 12, 400 mg/kg IV, 10, 30, 60 min and days 2-8): --
Clinical observation: FPSR (Swiss Webster mice; animal 12, 400 mg/kg IV, 10 min): --
Clinical observation: Normal (Swiss Webster mice; animal 12, 400 mg/kg IV, 10 min and days 2-8): x
Clinical observation: FPSR (Swiss Webster mice; animal 12, 400 mg/kg IV, 30 min): x
Clinical observation: Normal (Swiss Webster mice; animal 12, 400 mg/kg IV, 30 min, 60 min, 5 hr): --
Clinical observation: FPSR (Swiss Webster mice; animal 12, 400 mg/kg IV, 60 min, 5 hr): x
Clinical observation: Slow breathing (Swiss Webster mice; animal 12, 400 mg/kg IV, 5 hr): x
Clinical observation: FPSR (Swiss Webster mice; animal 12, 400 mg/kg IV, days 2-8): --
Condition after Day 1 (Swiss Webster mice; drug-treated groups, Days 2 to 8): normal between Days 2 and 8
Survival for the duration of the study (Swiss Webster mice; single IV 1.5-400 mg/kg, 8 days): All mice survived for the duration of the study
No-effect level (NOEL) [1]: 100 mg/kg
MTD ([1]; read-out: maximum tolerated dose (MTD)): ≥ 400 mg/kg
Mean survival time (MST) of the mice that died ([2]; FIG. 2): 46 days
Recipients that had died ([2]; by 55 days post cell transfer, FIG. 2): 30%
Recipients that had died ([2]; by day 30 post cell transfer, FIG. 2, P<0.0000001): none
Recipients that had died ([2]; day 33 post cell transfer, FIG. 3): 50%
Prevention of GVHD by route of administration, in words ([2]; oral versus intravenous): the oral route was better than the i.v. route; also recorded: Both the oral and intravenous routes of administration of HE-33 were effective in preventing GVHD
Proliferation ([3]; 1 μg/mL): 358 CPM
Proliferation ([3]; 10 μg/mL): 94 CPM
inhibition at 1 µg/mL ([3]; Homo sapiens, T-cell, 1 μg/mL): 65%
% Inhibition of IL-2 production (IL-2; 24 hours): 0%
IL-2 production (IL-2; 24 hours): 418 pg/mL
% Inhibition of IL-2 production (IL-2; 48 hours): 76%
IL-2 production (IL-2; 48 hours): 148 pg/mL
% Inhibition of IL-2 production (IL-2; 72 hours): 70%
IL-2 production (IL-2; 72 hours): 51 pg/mL
% Inhibition of IL-2 production (IL-2; 96 hours): 0%
IL-2 production (IL-2; 96 hours): 48 pg/mL
% Inhibition of IL-4 production (IL-4; 24 hours): 0%
IL-4 production (IL-4; 24 hours): 1041 pg/mL
% Inhibition of IL-4 production (IL-4; 48 hours): 87%
IL-4 production (IL-4; 48 hours): 193 pg/mL
% Inhibition of IL-4 production (IL-4; 72 hours): 26%
IL-4 production (IL-4; 72 hours): 860 pg/mL
% Inhibition of IL-4 production (IL-4; 96 hours): 25%
IL-4 production (IL-4; 96 hours): 101 pg/mL
% Inhibition of IL-10 production (IL-10; 24 hours): 21%
IL-10 production (IL-10; 24 hours): 441 pg/mL
% Inhibition of IL-10 production (IL-10; 48 hours): 0%
IL-10 production (IL-10; 48 hours): 1304 pg/mL
% Inhibition of IL-10 production (IL-10; 72 hours): 0%
IL-10 production (IL-10; 72 hours): 790 pg/mL
% Inhibition of IL-10 production (IL-10; 96 hours): 0%
IL-10 production (IL-10; 96 hours): 991 pg/mL
